According to patent US12055553B2, “Method for diagnosing risk for inflammatory disease through glycan profiling” (The Regents of the University of California, priority 2017, dated 2024):

How the values were obtained:
Caco-2 cells [1] = format: cell-based; settings: Caco-2, kifunensine-treated
Procedure: We examined whether supplementation of free monosacchaides derived from diet changes N-glycosylation outcomes on the intestinal cell-surface at concentrations relevant to physiological conditions. Changes in glycosylation were assessed by globally releasing glycans from membrane proteins extracted from fully differentiated (Caco-2) and partially differentiated (HT-29) intestinal epithelial cells and analyzing the mixture by porous graphitized carbon (PGC)-LC-MS. […] The glycan profile under normal growth conditions was used as a frame of reference with which to compare the glycome at varied environments.
Human colorectal adenocarcinoma Caco-2 cells derived from a person, were obtained from American Type Culture Collection (ATCC, VA) and grown in Eagle's Minimum Essential Medium (EMEM) supplemented with non-essential amino acids, 2 mM L-glutamine, 10% (v/v) fetal bovine serum (Life Technologies, NY), 1 mM sodium pyruvate, 1.5 g/L sodium bicarbonate, 100 U/mL penicillin, and 100 μg/mL streptomycin. Alternatively, Caco-2 cells were grown in Dulbecco's Modified Eagle's Medium (DMEM) supplemented with 10% (v/v) fetal bovine serum, 100 U/mL penicillin, and 100 μg/mL streptomycin. Human colorectal adenocarcinoma HT-29 cells, derived from a person, were obtained from ATCC and grown in McCoy's 5A medium supplemented with 10% (v/v) fetal bovine serum, 100 U/mL penicillin, and 100 μg/mL streptomycin. Cells were subcultured at 80% confluency and maintained at 37° C. in a humidified incubator with 5% CO=2. All treatments were added to the media after cell differentiation. Caco-2 cells were fully differentiated 14-days post-confluency. HT-29 cells were partially differentiated 4-days post-confluency. After 72 h, cells were collected in biological triplicates by scraping A fixed count of 2×10^6 viable cells was used for each experiment Passage number between experiments was controlled to no higher than P40 and a delta P of no more than 20. High passage cells were scraped after P80. Media was renewed three times a week unless specified. Monolayer integrity and quality of cell borders were evaluated under the microscope routinely during growth and before harvest.
In brief harvested cells were resuspended in homogenization buffer containing 0.25 M sucrose, 20 mM HEPES-KOH (pH 7.4), and 1:100 protease inhibitor (EMD Millipore, CA). Cell lysis was performed on ice using a probe sonicator (Qsonica, CT) with five alternating and on and off pulses in 5 and 10 s intervals, respectively. Lysates were […] at 2,000×g for 10 min to remove the nuclear fraction and cellular debris. The supernatant was collected and brought to 1 mL with homogenization buffer for ultracentrifugation at 200,000×g for 45 min at 4° C. The pallet was resuspended and repelleted by ultracentrifugation in 0.2 M Na2CO3 (pH 11) followed by water to fragment the endoplasmic reticulum and remove the cytoplasmic fraction, respectively. The resulting membrane faction was isolated and stored at −20° C. until further processing.
Membrane pellets were resuspended with 100 μL of 100 mM ammonium bicarbonate in 5 mM dithiothreitol and heated for 10 s at 100° C. to thermally denature the proteins. […] After addition of 400 μL of chilled ethanol, samples were placed in −80° C. for 1.5 h and centrifuged for 20 min at 21,130×g to precipitate residual deglycosylated proteins. The supernatant containing the released N-glycans was collected and dried. N-Glycans were purified by solid phase extraction containing a porous graphitized carbon (PGC) matrix. Eluted fractions were dried in vacuo.

[2] = tested on: dipeptidyl peptidase IV (DPP IV); experiment: Dipeptidyl peptidase IV activity in membrane fractions of treated Caco-2 cells; format: cell-based, Human; settings: membrane fractions of kifunensine-treated cells
Procedure: Dipeptidyl peptidase IV (DPP IV) activity was measured in membrane-enriched fractions using a colorimetric assay per manufacturer's instructions (Enzo Life sciences, NY). Membrane extracts from control and kifunensine-treated cells were incubated with a chromogenic substrate (H-Gly-Pro-pNa) at 25° C. for 30 min. Cleavage of p-nitroaniline (pNA) was monitored by absorbance measurements at […] with a microplate photometer. Enzyme activities were compared to a standard curve generated using a pNA standard. A reaction containing a DPP IV inhibitor (P32/98) was included as a control for enzymatic specificity.

[3] = tested on: alkaline phosphatase (IAP); experiment: Intestinal alkaline phosphatase activity in membrane fractions of treated Caco-2 cells; format: cell-based, Human; settings: enriched membrane fractions of kifunensine-treated (high mannose rich) cells
Procedure: Intestinal alkaline phosphatase (IAP) activity was measured in membrane-enriched factions using a colorimetric assay per manufacturer's instructions (Abcam, MA). Cells were incubated with 50 μM p-nitrophenyl phosphate (p-NPP) for 60 min. Dephosphorylated was monitored by the production of p-nitrophenyl, which turns the solution to a visible yellow color. Absorbance readings were taken at 405 nm with a microplate photometer. Enzyme activities were determined with a standard curve generated using IAP enzyme. Activity was measured in U/mL, where a Unit is defined as the amount of enzyme to hydrolyze 1 μmol of p-NPP per minute at 37° C.

Caco-2 cells [4] = experiment: Permeability assay, FITC-dextran passage through Caco-2 monolayer; format: cell-based, Human; settings: 100 μg/mL treatment, after 2 h, untreated to treated, n=4
Procedure: Caco-2 cells were seeded on porous polycarbonate filter membranes (3401; Corning, NY) until cells formed a single monolayer and were fully differentiated. Kifunensine (Carbosynth, CA) was added post-differeniation for 72 h. Four replicates were prepared for both control and kifunensine-treated cases. Permeability experiments were performed in Hank's Balanced Salt Solution, prepared with 25 mM HEPES, 0.35 g/L sodium bicarbonate, and adjusted to pH 7.4 with sodium hydroxide. The prepared membranes were washed and inserted into a new micro-well plate. FITC-dextran (4 kDa) (Sigma-Aldrich, MO) was introduced to the upper (apical) chamber at 10 mg/mL. The plate was placed in a 37° C. incubator devoid of CO2 for 2 h on an orbital shaker at 100 rpm. The amount of FITC-dextran that transferred through the cells was measured in the lower (basolateral) chamber by fluorescence at 492/520 nm (excitation/emission) using a Perkin Elmer Victor3 Multilabel Plate Reader (Parkin Elmer, MA). The apparent permeability coefficient was determined according to the following equation: [formula] where dQ/dt is the rate of permeation across cells, A is the surface area of the membrane, and C0 is the initial donor concentration. Transepithelial electrical resistance (TEER) values were measured using a Millicell ERS Voltohmmeter (EMD Millipore, MA) at room temperature. Enzyme Activity Assay

[5] = tested on: enterohaemorrhagic Escherichia coli (EHEC); experiment: Bacterial association assay on Caco-2 host cells, EHEC; format: cell-based, Escherichia coli O157:H7
Procedure: (§1) Enterohaemorrhagic Escherichia coli O157H;7 (EHEC) and methicillin-resistant Staphyloccuus aureus (MRSA) were grown at 37° C. with continuous shaking for 14-16 h.
(§2) Caco-2 cells were seeded into 24-well plates at 5×10^5 cells per well. Wells were designated as control (Row 1) or treated with kifunensine (Row 2). For adhesion, the left half of the plate was infected with logarithmically growing enterohaemorrhagic Escherichia coli O157:H7 (EHEC), and the right half of the plate was infected with methicillin-resistant Staphylocaccus aureus (MRSA). Triplicate setups were prepared for each condition. After 2 h, the wells were washed 3× with PBS and the adherent cell counts were determined by serial dilutions and spotting of the lysate generated upon treatment of the wells with, PBS/0.5% Triton for 5 min. CFU are expressed per mL as a comparison between the different treatments. For measuring uptake, the duplicate plate was similarly infected with EHEC and MRSA. Two hours post-infection, the unbound bacteria were washed with PBS (3×) and the Caco-2-cells were treated with media containing 100 μg/mL gentamicin to lyse cell surface associated bacteria. Following a 2 h-treatment, the internalized bacterial cell counts were derived upon lysing the Caco-2 cells with PBS/0.5% Triton followed by serial dilution and CFU counts.

[6] = tested on: methicillin-resistant Staphylococcus aureus (MRSA); experiment: Bacterial association assay on Caco-2 host cells, MRSA; format: cell-based
Procedure: as §1, §2

[7] = hyper-mannosylated (kifunensine-treated) Caco-2, within 2 h

Question: Which results are given for O=C1N[C@@H]2[C@@H](O)[C@@H](O)[C@H](O)[C@@H](CO)N2C1=O [kifunensine]?
Answer: cell viability (Caco-2 cells [1]): without affecting viability; conversion of surface glycans into high mannose glycans (Caco-2 cells [1]): nearly complete conversion; DPP IV activity change [2]: nearly unaffected; decrease in IAP activity vs unaltered Caco-2 cells [3]: ~32%; maximum increase in passage of FITC-D4 from upper to lower chamber (Caco-2 cells [4]): 64%; EHEC uptake in comparison to control cells ([5]; Caco-2 rich in high mannose glycans (kifunensine-treated), p=0.0005): significantly reduced; EHEC binding to the monolayer [5, 7]: did not significantly affect; increase in ability of MRSA to adhere to the monolayer [6, 7]: > 5000%; more MRSA bacteria able to invade transformed host cells than untreated cells ([6]; kifunensine-transformed Caco-2): approximately 30%
